Values belong to the molecule of their own block, whether it stands above or below them.
Experiments:
[1] = Encapsulation of active ingredients in the particles; assay type: physicochemical
Method: The protocol adopted for encapsulating the hydrophilic active ingredients is to dissolve the active ingredient in water at an initial concentration as indicated in Table 5 and then adding the amphiphilic polysaccharide and the α-cyclodextrin. The mixture is magnetically stirred for 3 days. After this mixing for 3 days, the concentration of the active ingredient that has not been encapsulated is determined in the supernatant of the preparation. The supernatant is separated either by simple sedimentation or by centrifugation of the microparticles, or after ultracentrifugation in the case of the nanoparticles.
The protocol adopted for encapsulating the hydrophobic active ingredients is to dissolve the active ingredient in an ethanol/water mixture at an initial concentration as shown in Table 26 and then add the amphiphilic polysaccharide and the α-cyclodextrin. The mixture is maintained under magnetic stirring for 3 days. After mixing for 3 days, the concentration of the active ingredient that has not been encapsulated is determined in the supernatant of the preparation. The supernatant is separated either by simple sedimentation or by centrifugation of the microparticles, or after ultracentrifugation in the case of the nanoparticles.

bacterial adhesion = settings: heparin coating of abiotic surfaces; cited from earlier work
Candida albicans = settings: heparin coating of abiotic surfaces; cited from earlier work
[2] = polysaccharide MC6, initial concentration 21.7 g/L, water
[3] = polysaccharide MC8, initial concentration 21.7 g/L, water
[4] = polysaccharide MC9, initial concentration 2.33 g/L, water
[5] = polysaccharide MC6, ethanol/water 40/60 % v/v, initial concentration 3.5 g/L
[6] = polysaccharide MC11, initial concentration 2.34 g/L, water
[7] = polysaccharide MC8, initial concentration 194 g/L, water
[8] = polysaccharide MC9, initial concentration 2.31 g/L, water

Molecule: Cn1c(=O)c2c(ncn2C)n(C)c1=O [Caffeine]
Concentration encapsulated [1, 2]: 3590 µg/mL
Encapsulation yield [1, 2]: 16.55%
Concentration encapsulated [1, 3]: 3150 µg/mL
Encapsulation yield [1, 3]: 17.53%
Concentration encapsulated [1, 4]: 510 µg/mL
Encapsulation yield [1, 4]: 22.23%

Encapsulated concentration [1, 5]: 1.09 g/L
Encapsulation yield [1, 5]: 31.12%
Molecule: CC(C(=O)O)c1cccc(C(=O)c2ccccc2)c1 (stereo not shown) [Ketoprofen]

Concentration encapsulated [1, 6]: 780 µg/mL
Encapsulation yield [1, 6]: 33.33%
Molecule: CC(=O)Nc1ccc(O)cc1 [Paracetamol]

Concentration encapsulated [1, 7]: 104650 µg/mL
Encapsulation yield [1, 7]: 53.94%
Concentration encapsulated [1, 8]: 1520 µg/mL
Encapsulation yield [1, 8]: 65.82%
Molecule: Cc1ncc(CO)c(CO)c1O.Cl [Vitamin B6]

Molecule: Heparin
reduction of bacterial adhesion (bacterial adhesion): 90%
reduction of adhesion of Candida albicans (Candida albicans): approximately 50%

— patent US10412960B2, “Microparticles and nanoparticles made up of hydrophobized polysaccharides and an alpha-cyclodextrine” (priority 2012, dated 2019)
